From patent US20080020995A1, “Use of Cyclodextrin Complexes Containing Lipoic Acid” (priority 2004, published 2008)

Experiment: Storage stability test of blend formulation (α-lipoic acid content)
Type: physicochemical
Details: absence of air and light
Method: First, a blend formulation of the following composition was produced: […]
50 g of creatine monohydrate; 20 g of citric acid; 5.0 g of sodium carbonate; 15 g of sodium bicarbonate; 5.0 g of lemon aroma; 0.5 g of aspartame; 0.5 g of acesulfame K; 4.0 g of magnesium hydroxide
To this blend were added 0.2% by weight of α-lipoic acid and 1.67% by weight of a racemic α-lipoic acid/α-cyclodextrin complex, respectively. The preparations obtained in each case were packaged in the absence of air and light and stored at 20° C. and 40° C.

α-Lipoic acid content of the blend (20° C., 1 month): 0.19 % by weight | α-Lipoic acid content of the blend (20° C., 2 months): 0.17 % by weight | α-Lipoic acid content of the blend (20° C., 3 months): 0.16 % by weight | α-Lipoic acid content of the blend (20° C., 6 months): 0.14 % by weight | α-Lipoic acid content of the blend (20° C., 9 months): 0.12 % by weight | α-Lipoic acid content of the blend (20° C., 12 months): 0.1 % by weight | α-Lipoic acid content of the blend (40° C., 1 month): 0.16 % by weight | α-Lipoic acid content of the blend (40° C., 2 months): 0.11 % by weight | α-Lipoic acid content of the blend (40° C., 3 months): 0.09 % by weight | α-Lipoic acid content of the blend (40° C., 6 months): 0.06 % by weight | α-Lipoic acid content of the blend (40° C., 9 months): 0.03 % by weight | α-Lipoic acid content of the blend (40° C., 12 months): 0 % by weight
Structure (SMILES): O=C(O)CCCCC1CCSS1 (racemic) [ALA, 1,2-dithiacyclopentane-3-valeric acid]
